Legend:
Experiment in all cases: relative viability (nuclei count vs DMSO), 5 days (fraction); higher = more cells survive
AZ505 + Crizotinib = compound: C1CCC(CC1)N(CCNCCC2=C3C(=C(C=C2)O)NC(=O)CO3)C(=O)CCNCCC4=CC(=C(C=C4)Cl)Cl [AZ505] + C[C@@H](Oc1cc(-c2cnn(C3CCNCC3)c2)cnc1N)c1c(Cl)ccc(F)c1Cl [Crizotinib] (partner 1 µM)
How it was run: (§1)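 Lung cancer cell lines in 1536-well plates were dosed by pin tool the day after seeding, either with one drug alone or with a fixed anchor-drug dose plus five library-drug doses (not always all listed) in √10 steps. After 5 days, cells were fixed and their nuclei stained in one step (final 0.05% Triton X-100, 1% formaldehyde, 1 ug/ml Hoechst), then counted on 4× images. Relative viability is the nuclei count in treated wells divided by that in vehicle wells. Values are medians of duplicate plates.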

AZ505 + Pemetrexed = compound: C1CCC(CC1)N(CCNCCC2=C3C(=C(C=C2)O)NC(=O)CO3)C(=O)CCNCCC4=CC(=C(C=C4)Cl)Cl [AZ505] + Nc1nc2[nH]cc(CCc3ccc(C(=O)N[C@@H](CCC(=O)O)C(=O)O)cc3)c2c(=O)[nH]1 [Pemetrexed] (partner 0.2 µM)
How it was run: as §1

Dactolisib + OSI-027 = compound: Cn1c(=O)n(-c2ccc(C(C)(C)C#N)cc2)c2c3cc(-c4cnc5ccccc5c4)ccc3ncc21 [Dactolisib] + COc1cccc2cc(-c3nc([C@H]4CC[C@H](C(=O)O)CC4)n4ncnc(N)c34)[nH]c12 [OSI-027] (partner 0.5 µM)
How it was run: as §1

AZ505 + Luminespib = compound: C1CCC(CC1)N(CCNCCC2=C3C(=C(C=C2)O)NC(=O)CO3)C(=O)CCNCCC4=CC(=C(C=C4)Cl)Cl [AZ505] + CCNC(=O)c1noc(-c2cc(C(C)C)c(O)cc2O)c1-c1ccc(CN2CCOCC2)cc1 [Luminespib] (partner 0.01 µM)
How it was run: as §1

Row | Cell Line | relative viability (AZ505 + Crizotinib; first compound 0.08 µM) | relative viability (AZ505 + Crizotinib; first compound 0.253 µM) | relative viability (AZ505 + Crizotinib; first compound 0.8 µM) | relative viability (AZ505 + Crizotinib; first compound 2.53 µM) | relative viability (AZ505 + Crizotinib; first compound 8 µM) | relative viability (AZ505 + Pemetrexed; first compound 0.08 µM) | relative viability (AZ505 + Pemetrexed; first compound 0.253 µM) | relative viability (AZ505 + Pemetrexed; first compound 0.8 µM) | relative viability (AZ505 + Pemetrexed; first compound 2.53 µM) | relative viability (AZ505 + Pemetrexed; first compound 8 µM) | relative viability (Dactolisib + OSI-027; first compound 0.002 µM) | relative viability (Dactolisib + OSI-027; first compound 0.006325 µM) | relative viability (Dactolisib + OSI-027; first compound 0.02 µM) | relative viability (Dactolisib + OSI-027; first compound 0.06325 µM) | relative viability (Dactolisib + OSI-027; first compound 0.2 µM) | relative viability (AZ505 + Luminespib; first compound 0.08 µM) | relative viability (AZ505 + Luminespib; first compound 0.253 µM) | relative viability (AZ505 + Luminespib; first compound 0.8 µM) | relative viability (AZ505 + Luminespib; first compound 2.53 µM) | relative viability (AZ505 + Luminespib; first compound 8 µM)
1 | NCI-H2009 | 0.989 | 1.03 | 0.976 | 1 | 0.976 | 1.05 | 1.01 | 0.984 | 1.06 | 1.01 | 0.74 | 0.659 | 0.754 | 0.404 | 0.266 | 0.847 | 1.08 | 1.02 | 0.956 | 0.962
2 | 201T | 0.986 | 1.03 | 0.932 | 1.01 | 1.02 | 0.343 | 0.342 | 0.403 | 0.345 | 0.31 | 0.715 | 0.749 | 0.682 | 0.747 | 0.509 | 1.01 | 1.05 | 1.01 | 1.02 | 1.08
3 | NCI-H23 | 0.502 | – | 0.443 | 0.638 | 0.557 | 0.638 | 0.506 | 0.604 | 0.73 | 0.668 | 0.683 | 0.577 | 0.564 | 0.308 | 0.385 | 0.214 | – | 0.208 | 0.221 | 0.196
4 | LOU-NH91 | 0.713 | 0.723 | 0.722 | 0.778 | 0.72 | 0.327 | 0.338 | 0.324 | 0.382 | 0.349 | 0.701 | 0.716 | 0.741 | 0.732 | 0.519 | 0.326 | 0.331 | 0.331 | 0.347 | 0.38
5 | NCI-H2085 | 1.02 | 0.848 | 0.679 | 0.924 | 0.877 | 0.832 | 0.758 | 0.78 | 0.835 | 0.965 | 0.737 | 0.609 | 0.663 | 0.319 | 0.269 | 0.378 | 0.41 | 0.423 | 0.4 | 0.403
6 | COR-L23 | 0.42 | 0.621 | 0.518 | 0.567 | 0.385 | 0.185 | 0.204 | 0.201 | 0.185 | 0.186 | 0.917 | 0.796 | 0.59 | 0.289 | 0.259 | 0.54 | 0.771 | 0.611 | 0.613 | 0.706
7 | BEN | 0.789 | 0.889 | 0.854 | 0.816 | 1.07 | 0.682 | 0.678 | 0.871 | 0.746 | 0.786 | 0.302 | 0.33 | 0.302 | 0.32 | 0.315 | 0.367 | 0.564 | 0.352 | 0.336 | 0.449
8 | ChaGo-K-1 | 1.17 | 1.04 | 1.12 | 0.958 | 1.15 | 0.26 | 0.268 | 0.28 | 0.252 | 0.258 | 0.538 | 0.528 | 0.571 | 0.537 | 0.609 | 0.513 | 0.603 | 0.556 | 0.673 | 0.474
9 | LK-2 | 0.234 | 0.237 | 0.211 | 0.21 | 0.215 | 0.215 | 0.254 | 0.294 | 0.283 | 0.313 | 0.176 | 0.205 | 0.213 | 0.207 | 0.159 | 0.189 | 0.175 | 0.172 | 0.225 | 0.176
10 | NCI-H322M | 0.93 | 0.786 | 0.878 | 0.828 | 0.931 | 0.604 | – | 0.61 | 0.647 | 0.648 | 0.542 | 0.56 | 0.562 | 0.535 | 0.515 | 0.931 | 0.84 | 0.798 | 0.819 | 0.918
11 | NCI-H520 | 0.744 | 0.899 | 0.704 | 0.727 | 0.728 | 0.483 | 0.684 | 0.777 | 0.81 | 0.875 | 0.285 | 0.303 | 0.308 | 0.204 | 0.189 | 0.232 | 0.186 | 0.312 | 0.239 | 0.211
12 | NCI-H1666 | 0.903 | 1.03 | 0.96 | 0.997 | 0.954 | 0.81 | 0.835 | 0.736 | 0.85 | 0.841 | 1.04 | 0.895 | 0.864 | 0.755 | 0.687 | 0.974 | 0.952 | 0.931 | 0.987 | 0.997
13 | NCI-H1993 | 0.928 | 0.85 | 0.766 | 1.03 | 0.798 | 0.63 | 0.66 | 0.568 | 0.651 | 0.677 | 0.596 | 0.496 | 0.615 | 0.469 | 0.589 | 0.842 | 0.795 | 0.716 | 0.911 | 0.861
14 | NCI-H1975 | 0.891 | 0.994 | 0.902 | 0.836 | 0.995 | 0.289 | 0.311 | 0.309 | 0.307 | 0.301 | 0.676 | 0.676 | 0.591 | 0.297 | 0.244 | 0.198 | 0.197 | 0.197 | 0.162 | 0.2
15 | HCC-44 | 0.748 | 0.772 | 0.804 | 0.773 | 0.791 | 0.683 | 0.643 | 0.659 | 0.638 | 0.673 | 0.492 | 0.559 | 0.634 | 0.439 | 0.466 | 0.969 | 1.03 | 1.03 | 1.09 | 1.18
